US8288365B2, “Phenazopyridine compounds” (Pinnacle Pharmaceuticals, Inc., priority 2008, dated 2012)
In brackets after ≈: the same amount, converted by molar mass. Like-named read-outs stand apart in the source and are kept apart here. One block for each molecule: values may come before it.

Assays:
[1] = Solubility of PAP prodrugs in 0.1N HCl; assay type: physicochemical; settings: for solubility: simulated gastric fluid
[2] = Pharmacokinetics of PAP and intact Gly-PAP in dogs (plasma and urine) after oral gavage; assay type: in vivo
Protocol: Pharmacokinetics for PAP and Gly-PAP (intact prodrug) were assessed in dogs following administration by oral gavage of mg/kg doses. Blood (approximately 2 mL) was collected from a jugular vein into tubes containing lithium heparin anticoagulant predose and at 0.083, 0.25, 0.5, 1, 2, 4, 8, 12, and 24 hours postdose. Urine was collected into plastic containers surrounded by wet ice predose (−18 to 0) and 0 to 24 hours postdose. The volume of each sample was recorded. Plasma and urine samples were assayed for PAP and Gly-PAP by LC-MS-MS.

dogs = assay: Emesis in dogs after oral TID dosing; assay type: in vivo; settings: dogs (1 male/1 female), oral gavage TID, 24.8 mg/kg phenazopyridine base equivalent per dose
Protocol: Dogs (1 male/1 female) were dosed by oral gavage 3 times (TID), once every 8 hours, with 40 mg/kg Gly-PAP or 29 mg/kg phenazopyridine HCl (doses contained an equivalent amount of 24.8 mg/kg phenazopyridine base). […] Results showing reduction of the GI side effect of emesis are illustrated in FIG. 18.

[3] = Pharmacokinetics of PAP and intact Gly-PAP in male rats after oral gavage; assay type: in vivo
Protocol: Pharmacokinetics for PAP and Gly-PAP (intact prodrug) were assessed in male rats following administration by oral gavage of mg/kg doses. Rats were fasted overnight prior to dosing. Blood samples were withdrawn at 0.25, 0.5, 1, 2, 4, 6, and 24 hours. The whole blood was centrifuged immediately, and supernatant (plasma) was collected. The plasma samples were assayed for PAP and Gly-PAP by LC-MS-MS.

[4] = Oral bioavailability of PAP prodrugs in rats (plasma PAP by LC-MS-MS); assay type: in vivo
Protocol: The oral bioavailability of PAP (phenazopyridine) prodrugs was evaluated in healthy rats. All the PAP amide (amino acid derivatives) bases were dissolved in 0.1N HCl (the same result can be obtained with a lower molarity), while the carbamates were dissolved in PEG-400 due to the very poor aqueous solubility of the PAP-carbamates. In general, all of the amino acid amide derivatives of PAP had higher water solubility than those of the PAP-carbamates. In another PK study, PAP.HCL salt, Gly-PAP.HCl salt and Gly-PAP.mesylate salt were dissolved in water, affording a clear solution in each case prior to oral administration.
(§1) The rats were fasted overnight prior to dosing. Appropriate amount of each compound was administered via gastric gavages, and at predetermined time (1, 2, 4, 6, and 24 h) blood samples were withdrawn from the rats. The whole blood was centrifuged immediately, and supernatant (plasma) was collected. The plasma samples were assayed for PAP using LC-MS-MS.

rats [5] = settings: doses up to 50 mg/kg/day or 110 mg/kg/day; cited from earlier work
rabbits = settings: 39 mg/kg/day; cited from earlier work
[6] = cited from earlier work
rats [7] = settings: cited from earlier work
mammalian cells = settings: cited from earlier work
mice = settings: i.p.; cited from earlier work
bacteria = settings: cited from earlier work
rats [8] = settings: long term (2 years); cited from earlier work
female mice = settings: cited from earlier work
[9] = PAP pharmacokinetics in rats after oral Gly-PAP salt forms; assay type: in vivo; settings: PAP in rat plasma, 2.5 mg/kg PAP base equivalent (2.8 for free base)
Protocol: The oral bioavailability of PAP (phenazopyridine) prodrugs was evaluated in healthy rats.
as §1
The pharmacokinetics of various salts of Gly-PAP were compared following oral administration to rats.

- solubility [1]: 2000 µg/mL (≈ 7030 µM)
Molecule: C[C@H](N)C(=O)Nc1ccc(/N=N/c2ccccc2)c(N)n1 [Alanyl-PAP, Alanyl-Phenazopyridine]

- solubility [1]: < 100 µg/mL
Molecule: Nc1nc(NC(=O)OCc2ccccc2)ccc1/N=N/c1ccccc1 [Benzylcarbamyl-PAP, Benzylcarbamyl-Phenazopyridine]

- solubility [1]: < 100 µg/mL
Molecule: CCOC(=O)Nc1ccc(/N=N/c2ccccc2)c(N)n1 [Ethylcarbamyl-PAP, Ethylcarbamyl-Phenazopyridine]

- Exposure (AUC0-24) to Gly-PAP relative to that for phenazopyridine ([2]; Gly-PAP 8.1 mg/kg): less than 10%
- Plasma Tmax for phenazopyridine (comparison) ([2]; Gly-PAP compared to phenazopyridine HCl): increased
- solubility [1]: > 2000 µg/mL
- AUC of phenazopyridine from 0.9 mg/kg Gly-PAP versus 2.8 mg/kg phenazopyridine HCl ([3]; 0.6 versus 2.5 mg/kg phenazopyridine base): approximately equal AUC
- Plasma levels of Gly-PAP relative to those for phenazopyridine from Gly-PAP ([3]; Gly-PAP 4.0 mg/kg): < 5%
Molecule: NCC(=O)Nc1ccc(/N=N/c2ccccc2)c(N)n1 [Gly-PAP, Glycyl-Phenazopyridine (6-N-Glycylphenazopyridine)]
- Amount of phenazopyridine delivered to the urine ([2]; 8.1 mg/kg Gly-PAP versus equivalent phenazopyridine HCl, urine 0 to 24 hours): a greater amount of phenazopyridine was delivered to the urine
- Observations of vomitus (dogs): single observation of vomitus

- solubility [1]: > 10000 µg/mL
Molecule: Nc1nc(NC(=O)[C@@H](N)Cc2c[nH]cn2)ccc1/N=N/c1ccccc1 [Histidinyl-PAP, Histidinyl-Phenazopyridine]

- Tmax ([4]; rats, oral): longer
- solubility [1]: < 100 µg/mL
Molecule: CC(C)COC(=O)Nc1ccc(/N=N/c2ccccc2)c(N)n1 [Isobutylcarbamyl-PAP, Isobutylcarbamyl-Phenazopyridine]

- solubility [1]: > 2500 µg/mL
Molecule: NCCCC[C@H](N)C(=O)Nc1ccc(/N=N/c2ccccc2)c(N)n1 [Lysyl-PAP, Lysyl-Phenazopyridine]

- solubility [1]: 1000 µg/mL (≈ 2900 µM)
Molecule: CSCC[C@H](N)C(=O)Nc1ccc(/N=N/c2ccccc2)c(N)n1 [Methionyl-PAP, Methionyl-Phenazopyridine]

Molecule: Nc1ccc(/N=N/c2ccccc2)c(N)n1 [Phenazopyridine]
- Effects on fertility or embryo-fetal development (rats [5]): no effects on fertility or embryo-fetal development
- Effects on fertility or embryo-fetal development (rabbits): no effects on fertility or embryo-fetal development
- Excreted unchanged in urine ([6]; oral): up to 65%
- Single dose cleared within 24 hours ([6]; within 24 hours): approximately 90%
- Acute toxicity LD50 (rats [7]; i.p.): 200 mg/kg
- Acute toxicity LD50 (rats [7]; oral): 472 mg/kg
- Mutagenicity and clastogenicity (mammalian cells): mutagenic and clastogenic
- Acute toxicity LD50 (mice): 180 mg/kg
- Mutagenicity (bacteria): mutagenic

- Tmax ([4]; rats, oral): longer
- solubility [1]: 500 µg/mL (≈ 1250 µM)
Molecule: Nc1nc(NC(=O)[C@@H](N)Cc2c[nH]c3ccccc23)ccc1/N=N/c1ccccc1 [Tryptophanyl-PAP, Tryptophanyl-Phenazopyridine]

- solubility [1]: > 2500 µg/mL
Molecule: CC(C)[C@H](N)C(=O)Nc1ccc(/N=N/c2ccccc2)c(N)n1 [Valyl-PAP, Valyl-Phenazopyridine]

Molecule: phenazopyridine hydrochloride [PAP•HCl]
- Plasma bioavailability of phenazopyridine ([2]; phenazopyridine HCl versus equivalent Gly-PAP): greater plasma bioavailability
- Tumour induction on long term administration (rats [8]): induced adenomas and adenocarcinomas in the large intestine
- Tumour induction on lifetime administration (female mice): caused hepatocellular adenomas and carcinomas
- Tmax ([4]; fasted rats, single oral gavage): <60 min
- AUC0-24 ([4]; fasted rats, single oral gavage, 0-24 hr): 182 ± 12 ng·h/mL
- Tmax [9]: 15 min
- AUC0-6 ([9]; SD printed in the row below): 105 ng·h/mL
- Cmax ([9]; water vehicle (0.1N HCl for free base)): 58 ng/mL
- Solubility in 0.1N HCl [1]: 500 µg/mL
- Observations of vomitus (dogs): four observations of vomitus
